{"source": "patent US20220387384A1", "about": "“METHODS OF TREATING LSD1-RELATED DISEASES AND DISORDERS WITH LSD1 INHIBITORS” (Taiho Pharmaceutical Co., Ltd., priority 2019, published 2022)", "origin": "cited, not measured here", "settings": "i.e. about 3 days; NPL 11"}
{"compound": "COc1ccc(-c2c(-c3ccc(C#N)c(F)c3)nc(N3CCC(N)CC3)n(C)c2=O)cc1F", "note": "[CC-90011]", "values": [{"measurement": "half-life in pharmacokinetics", "result": "~71", "unit": "h"}]}
